From patent US20140314904A1, “PRE-SLAUGHTER DIET INCLUDING METHIONINE” (ADISSEO FRANCE S.A.S., priority 2011, published 2014)

Key:
Type in all cases: in vivo, pig
slaughter pigs [1] = test: Cooking loss of pork chops; conditions: 7 days at 2° C., LS mean ± SEM
From the text: Twenty-one slaughter pigs ([Yorkshire×Swedish Landrace]×Hampshire) were raised on a commercial diet. Pigs were randomly assigned to one of three groups (n=7). The groups represented three feeding strategies, namely a Control group which received a standardized diet comprising 0.27% total methionine, and both a DLM and HMTBA group, receiving the same diet as the Control group throughout the feeding period, apart from the fact that they were fed a higher level of methionine (1.1% total methionine) during a seven day finishing period immediately prior to slaughter. The supplements were given in two forms, either as D L-methionine (DLM) or DL-2-hydroxy-4-methylthiobutanoic acid (HMTBA).
Pigs were slaughtered at a commercial slaughter house in Sweden after a resting time of 5 hours. At 45 minutes post mortem, pH (Knick portamess 751 pH-meter with an Ingold LOT glass electrode, Tech Instrumentering ApS, Denmark) and temperature (digital thermometer, Weber, Stephen Nordic, Denmark) were measured in the m. Longissimus dorsi (LD) at the level of the 10th rib. At 48 hours post mortem, the entire back was dissected from the carcass and transported under controlled conditions to the University of Copenhagen for further measurements.
Pork chops were cut perpendicular to the long axis of each LD muscle. Six 3 cm thick pork chops was sliced from each LD. Three were vacuum packed and three were packed in a high-oxygen modified atmosphere. The chops were placed in plastic trays (M71-43A white/PS; 195×144×43 mm in dimension; Frch Plast, Denmark) and placed in vacuum bags (EM-628862; O2 transmission rate=40-50 cm^3/m^2/24 h/bar, CO2 transmission rate=150 cm^3/m^2/24 h/bar, water-vapour transmission rate=2.6 g/m^2/24 h; LogiCon Nordic A/S, Denmark). The ambient air was removed from all vacuum bags using a vacuum machine (type, manufacturer, country). The bags intended for […] were first filled with a gas mixture (80% oxygen/20% carbon dioxide) before being sealed completely, whereas the bags intended for MAP were only partially sealed. […] (until 9 days post mortem). The gas composition was checked (CheckMate 9900, PBI Dansensor, Denmark) before packaging and again prior to opening, at the end of the simulated display period in order to check for leakage. The oxygen-enriched environment was well maintained (83.4%) throughout the display period for all MA packages.
Storage loss was determined as the weight loss percentage at the end of the display period (9 days post mortem) relative to the weight at the day of packaging (two days post mortem). The cooking loss was determined as the weight loss percentage between the pork chops before and after cooking. The results are given as the mean of the three pork chops in each meat pack.

slaughter pigs [2] = test: Free protein thiol (protein oxidation, Ellman's reagent); conditions: for Level of free thiol (protein oxidation): 7 days at 2° C., LS mean ± SEM; for Decline of level of free thiol from storage without oxygen to high-oxygen MAP: vacuum versus MAP
Protocol: In Example 1 twenty-one pigs were randomly assigned to one of three feeding groups (n=7). The control group received a standardized diet only. The DLM and HMTBA groups received the standardized diet plus a high-methionine supplement (either DLM (i.e. […] At 48 h post mortem, 3 cm thick pork chops were either vacuum packed or sealed in a modified atmosphere (MA; 80% O2) and stored for an additional 7 days at 2° C. Instrumental hardness was measured using the Warner-Bratzler shear force (WBSF; Newton) method. Protein oxidation was measured as the loss of free thiol groups in proteins (nmol thiol per mg protein) using Ellman's reagent. Lipid oxidation was measured as the increase in 2-thiobarbituric acid reactive substances (TBARS; mg malondialdehyde per kg meat). Twenty-one slaughter pigs ([Yorkshire×Swedish Landrace]×Hampshire) were raised on a commercial diet. Pigs were randomly assigned to one of three groups (n=7). […] Pork chops were cut perpendicular to the long axis of each LD muscle. Six 3 cm thick pork chops was sliced from each LD. Three were vacuum packed and three were packed in a high-oxygen modified atmosphere. The chops were placed in plastic trays ([…]-43A white/PS; 195×144×43 mm in dimension; Frch Plast, Denmark) and placed in vacuum bags (EM-628862; […] The ambient air was removed from all vacuum bags using a vacuum machine (type, manufacturer, country). […] (until 9 days post mortem). The gas composition was checked (CheckMate 9900, PBI Dansensor, Denmark) before packaging and again prior to opening, at the end of the simulated display period in order to check for leakage. The oxygen-enriched environment was well maintained (83.4%) throughout the display period for all MA packages. […] In brief, the frozen pork samples were partially thawed at chill storage temperature for 30 minutes. Fat and connective tissue was removed and 1.0 g of lean meat was homogenised in 25 ml of 5.0% SDS (sodium dodecyl sulphate) in 0.10 M Tris ([…]) buffer, pH 8.0 using an Ultra Turrax (Ultra Turrax T-25, Janke & Kunkel IKA-Labortechnik, Germany). The homogenates were placed in a water bath at 80° C. for 30 minutes, and subsequently cooled and filtered. The protein concentration was determined spectrophotometrically (Helios Omega Single Beam UV-VIS, Fisher Scientific Biotech Line, Denmark) at a wavelength of 280 nm using a standard curve prepared from bovine serum albumin (BSA). […] Filtrate (25 μl), Tris buffer (100 μl) and DTNB (25 μl) were added to wells in a 96 well microtiter plate. The absorbance at 410 nm was measured before addition of DTNB (ABS410meat) and after reaction with DTNB (ABS410meat+DTNB). In addition, the absorbance of a blank solution (25 μl 5% SDS dissolved in 100 mM Tris buffer and 100 μl 0.10 M Tris buffer) was likewise measured at 410 nm. After addition of DTNB, the microtiter plate was stored in the dark and the absorbance was measured exactly 30 minutes later. The absorbance corresponding to the thiol concentration in the sample was CorrABS410=ABS410meat+DTNB-ABS410meat-ABS410blank. […] The concentration of free thiol groups was determined as nmol thiol per mg protein. Duplicate homogenates, and triplicate measurements on each homogenate, were made for each meat sample and the mean values were used for further statistical analysis.

slaughter pigs [3] = test: Instrumental meat colour (CIE L*a*b*), Example 1; conditions: LS mean ± SEM
[4] = MAP 80% O2/20% CO2 (9 days post mortem)

Structure (SMILES) | Cooking loss (slaughter pigs [1]; MAP (80% O2 + 20% CO2)) | Cooking loss (slaughter pigs [1]; Vacuum) | Level of free thiol (protein oxidation) (slaughter pigs [2]; MAP (80% O2 + 20% CO2)) | Level of free thiol (protein oxidation) (slaughter pigs [2]; Vacuum) | Decline of level of free thiol from storage without oxygen to high-oxygen MAP (slaughter pigs [2]) | Light reflection (L*) (slaughter pigs [3]; [4]) | Light reflection (L*) (slaughter pigs [3]; Vacuum (9 days post mortem)) | Redness (a*) (slaughter pigs [3]; Vacuum (9 days post mortem)) | Saturation index (slaughter pigs [3]; Vacuum (9 days post mortem)) | Yellowness (b*) (slaughter pigs [3]; Vacuum (9 days post mortem))
CSCCC(N)C(=O)O (racemic) [DLM, DL-methionine] | 15.82 ± 1.86 ^A g | 21.52 ± 1.86 ^A g | 56.27 ± 1.13 ^B nmol thiol/mg protein | 62.16 ± 1.19 ^A nmol thiol/mg protein | 6.0 units | 59.19 ± 1.30 ^A | 57.83 ± 1.25 ^A, B | 8.21 ± 0.58 ^A, B | 11.55 ± 0.67 ^A, B, C | 8.11 ± 0.46 ^A, B
CSCCC(O)C(=O)O (racemic) [HMTBA, 2-hydroxy-4-(methylthio) butanoic acid] | 18.49 ± 1.73 ^A g | 21.35 ± 1.73 ^A g | 59.15 ± 1.13 ^A, B nmol thiol/mg protein | 62.60 ± 1.13 ^A nmol thiol/mg protein | 3.5 units | 58.73 ± 1.30 ^A, B | 55.34 ± 1.25 ^A, B | 8.86 ± 0.58 ^A, C | 12.22 ± 0.67 ^A | 8.39 ± 0.46 ^A
